In PubChem BioAssay AID2060491 (Molecular Pharmacology Branch, DTP, NCI, 2025):
pIC50: −log10 of the molar value.

Tested on: 857933-349-R-J2-PDC complex spheroids, viability
Assay: Anticancer human tumor 857933-349-R-J2-PDC patient-derived colon adenocarcinoma cell line growth inhibition [GQUAD]
Conditions: for pIC50: curve of first compound; for viability, T/C: stronger effect = lower value; active = viability on the fitted dose curve at most 10% of control; inactive = the rest
Excerpt: DNA G-quadruplex Stabilizer Agents in Combinations in Complex Spheroids
A high-throughput screen of multi-cell type tumor spheroids was designed to identify active combinations of DNA G-quadruplex stabilizer agents and targeted small molecules. Complex spheroids include a stromal component modeled by human endothelial cells (HUVEC) and fibroblasts modeled by human mesenchymal stem cells (MSCs). The concentration ranges selected for each drug and investigational agent were based upon clinically achievable concentrations if the clinical Cmax of the agent was known.
Compounds. The drugs and investigational agents: pidnarulex (CX-5461; NSC782164), APTO-253 (NSC789042), BRACO-19 (NSC847499), peposertib (NSC802822), ceralasertib (NSC780249), elimusertib (NSC800525), camonsertib (NSC841442), AZD-1390 (NSC803789), olaparib (NSC753686), talazoparib (NSC767125), ART-558 (NSC835418), sotorasib (NSC818433), MRTX-1133 (NSC836407), SN-38 (NSC673596), topotecan (NSC609699), etoposide (NSC141540), doxorubicin (NSC123127), gemcitabine (NSC613327), 5-fluorouracil (NSC19893), paclitaxel (NSC125973), vemurafenib (NSC761431), panobinostat (NSC761190), R-306465 (JNJ-16241199; NSC773264), adavosertib (NSC754352), TP-3654 (NSC805149), carboplatin (NSC241240), KSQ-4279 (NSC840948), and staurosporine (NSC755774) were obtained from the National Cancer Institute (NCI) Developmental Therapeutics Program Chemical Repository (34). The FDA-approved anticancer drug set is available from the NCI Developmental Therapeutics Program. […] The stock solutions were prepared in dimethyl sulfoxide (DMSO, Sigma-Aldrich, St. Louis, MO, cat. D2650) at 800-fold the tested concentration and stored at -70 degrees C prior to their use. All drugs and investigational agents were tested over a range starting from a high concentration at or near the clinical Cmax and decreasing in half-log increments. If the clinical Cmax for an agent had not been determined, the highest concentration tested was 10 microM.
2.3 Cell Culture. All cells were maintained in an incubator at 37 degrees C and 5% CO2 with 95% humidity. The PDC lines were cultured according to standard operating procedures established by the NCI PDMR. All PDCs were thawed and cultured in Matrigel-coated flasks prepared with a working solution of 1X Ham's F-12 nutrient mix, without supplementation (Invitrogen, cat. 11765054), 100 U/mL penicillin-streptomycin (Invitrogen, cat. 15140122), and 2.5% Matrigel (Corning Inc., cat. 354248) for the first three passages. The 857933-349-R-J2-PDC line was cultured in 6C/Colon 1B media, which includes advanced DMEM/F-12 (Thermo Fisher Scientific, cat. 12634028), 10 mM HEPES (Thermo Fisher Scientific, cat. 15630080), 1X GlutaMAX supplement (Thermo Fisher Scientific, cat. 35050061), 0.1 mg/mL primocin (InvivoGen, cat. ant-pm-2), 10% defined fetal bovine serum, heat inactivated (HyClone Laboratories Inc., cat. SH30070.03HI), 50% L-WRN conditioned media (ATCC, cat. CRL-3276), 1.25 mM N-Acetyl-L-cysteine (Sigma-Aldrich, cat. A9165), 10 mM nicotinamide (Sigma-Aldrich, cat. N0636), 1X B-27 supplement (Thermo Fisher Scientific, cat. 17504044), 1X N-2 supplement (Thermo Fisher Scientific, cat. 17502048), 10 microM Y-27632 dihydrochloride (Tocris Bioscience, cat. 1254), and 50 ng/mL human EGF recombinant protein (Thermo Fisher Scientific, cat. PHG0311). The 485176-168-R4-J1-PDC line was cultured in Panc media, which includes all 6C/Colon 1B media components plus 100 ng/mL human FGF-10 (Thermo Fisher Scientific, cat. 100-26), 500 nM SB-431542 (Selleckchem, cat. S1067), and gastrin (Tocris, cat. 3006).
[…]
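Note: spheroids exposed to compounds for one week before readout.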
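Throughout, for viability, T/C: percent viability relative to vehicle DMSO wells taken as 100%.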

CC1COCCN1c1cc(C2(O)CC3CCC(C2)O3)c2cnn(-c3ccn[nH]3)c2n1 (configuration not stated) + CN(C)c1ccc(Nc2c3ccc(NC(=O)CCN4CCCC4)cc3nc3cc(NC(=O)CCN4CCCC4)ccc23)cc1
< 5.00: pIC50 (second compound 0.1 µM) | pIC50 (second compound 0.316 µM) | pIC50 (second compound 1 µM) | pIC50 (second compound 3.16 µM)
5.51: pIC50 (second compound 10 µM)
inactive: viability, T/C (second compound 0.0316 µM, first compound 0.0316 µM) 104% | viability, T/C (second compound 0.0316 µM, first compound 0.1 µM) 90.6% | viability, T/C (second compound 0.0316 µM, first compound 0.316 µM) 73.8% | viability, T/C (second compound 0.0316 µM, first compound 1 µM) 61.5% | viability, T/C (second compound 0.0316 µM, first compound 3.16 µM) 51.4% | viability, T/C (second compound 0.0316 µM, first compound 10 µM) 50.7% | viability, T/C (second compound 0.1 µM, first compound 0.0316 µM) 97.8% | viability, T/C (second compound 0.1 µM, first compound 0.1 µM) 92.4% | viability, T/C (second compound 0.1 µM, first compound 0.316 µM) 75.6% | viability, T/C (second compound 0.1 µM, first compound 1 µM) 60.2% | viability, T/C (second compound 0.1 µM, first compound 3.16 µM) 53.8% | viability, T/C (second compound 0.1 µM, first compound 10 µM) 55.4% | viability, T/C (second compound 0.316 µM, first compound 0.0316 µM) 94.1% | viability, T/C (second compound 0.316 µM, first compound 0.1 µM) 82.5% | viability, T/C (second compound 0.316 µM, first compound 0.316 µM) 74.2% | viability, T/C (second compound 0.316 µM, first compound 1 µM) 52.7% | viability, T/C (second compound 0.316 µM, first compound 3.16 µM) 56.9% | viability, T/C (second compound 0.316 µM, first compound 10 µM) 54.1% | viability, T/C (second compound 1 µM, first compound 0.0316 µM) 92.8% | viability, T/C (second compound 1 µM, first compound 0.1 µM) 76% | viability, T/C (second compound 1 µM, first compound 0.316 µM) 71% | viability, T/C (second compound 1 µM, first compound 1 µM) 54.6% | viability, T/C (second compound 1 µM, first compound 3.16 µM) 62.6% | viability, T/C (second compound 1 µM, first compound 10 µM) 50.1% | viability, T/C (second compound 3.16 µM, first compound 0.0316 µM) 88.2% | viability, T/C (second compound 3.16 µM, first compound 0.1 µM) 71.9% | viability, T/C (second compound 3.16 µM, first compound 0.316 µM) 75.3% | viability, T/C (second compound 3.16 µM, first compound 1 µM) 55% | viability, T/C (second compound 3.16 µM, first compound 3.16 µM) 59.4% | viability, T/C (second compound 3.16 µM, first compound 10 µM) 50% | viability, T/C (second compound 10 µM, first compound 0.0316 µM) 70.7% | viability, T/C (second compound 10 µM, first compound 0.1 µM) 70.2% | viability, T/C (second compound 10 µM, first compound 0.316 µM) 63.5% | viability, T/C (second compound 10 µM, first compound 1 µM) 54.9% | viability, T/C (second compound 10 µM, first compound 3.16 µM) 51.7% | viability, T/C (second compound 10 µM, first compound 10 µM) 40.8%
5.03: pIC50 (second compound 0.0316 µM)
